Reference: US9492552B2, “Injectable aqueous pharmaceutical compositions comprising a cyclodextrin, a hydrophobic drug, a co-solvent, and a preservative” (JUROX PTY LTD, priority 2011, dated 2016)

Assay: Precipitation of alfaxalone from alfaxalone/2-hydroxypropyl-β-cyclodextrin complex solution on adding preservative without co-solvent
Format: physicochemical
Details: upwards to 1% w/v (typical content); no co-solvent

## OCc1ccccc1 [benzyl alcohol]
  benzyl alcohol content at which significant precipitation occurs (titration): ≥ 0.2 % w/v
